# Assay results reported in ChEMBL document CHEMBL1201861, “Genomics of Drug Sensitity in Cancer screening data, Wellcome Trust Sanger Institute”.
# pIC50: −log10 of the molar value.
# Assays:
# Test in all cases: cells
# COLO-829 = format: functional, cell-based, Homo sapiens; conditions: Homo sapiens, COLO-829
# Description: SANGER: Inhibition of human COLO-829 cell growth in a cell viability assay.
# CaR-1 = format: functional, cell-based, Homo sapiens; conditions: Homo sapiens, CaR-1;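 note: growth inhibition of human CaR-1 cancer cells, read out with a cell viability assay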
# Description: SANGER: Inhibition of human CaR-1 cell growth in a cell viability assay.
# Calu-3 = format: functional, cell-based, Homo sapiens; conditions: Homo sapiens, Calu-3;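 note: growth inhibition of human Calu-3 cells, determined with a cell viability assay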
# Description: SANGER: Inhibition of human Calu-3 cell growth in a cell viability assay.
# ChaGo-K-1 = format: functional, cell-based; conditions: Homo sapiens;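 note: growth inhibition of ChaGo-K-1 cells, read out with a cell viability assay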
# Description: SANGER: Inhibition of human ChaGo-K-1 cell growth in a cell viability assay.
# D-542MG = format: functional, cell-based, Homo sapiens; conditions: Homo sapiens, D-542MG
# Description: SANGER: Inhibition of human D-542MG cell growth in a cell viability assay.
# DEL = format: functional, cell-based; conditions: Homo sapiens;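 note: growth inhibition of the human DEL cell line, read out with a cell viability assay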
# Description: SANGER: Inhibition of human DEL cell growth in a cell viability assay.
# DU-4475 = format: functional, cell-based; conditions: Homo sapiens
# Description: SANGER: Inhibition of human DU-4475 cell growth in a cell viability assay.
# HCT-116 = format: functional, cell-based, Homo sapiens; conditions: Homo sapiens, HCT-116
# Description: SANGER: Inhibition of human HCT-116 cell growth in a cell viability assay.
# HEC-1 = format: functional, cell-based, Homo sapiens; conditions: Homo sapiens, HEC-1;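 note: growth inhibition of the cell line, read out with a cell viability assay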
# Description: SANGER: Inhibition of human HEC-1 cell growth in a cell viability assay.
# HL-60 = format: functional, cell-based; conditions: Homo sapiens;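 note: growth inhibition of human HL-60 cells, read out with a cell viability assay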
# Description: SANGER: Inhibition of human HL-60 cell growth in a cell viability assay.
# HPAF-II = format: functional, cell-based, Homo sapiens; conditions: Homo sapiens, HPAF-II;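 note: growth inhibition of HPAF-II cells, read out with a cell viability assay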
# Description: SANGER: Inhibition of human HPAF-II cell growth in a cell viability assay.
# HT1197 = format: functional, cell-based, Homo sapiens, HT-1197; conditions: Homo sapiens, HT1197
# Description: SANGER: Inhibition of human HT-1197 cell growth in a cell viability assay.
# HT-144 = format: functional, cell-based, Homo sapiens; conditions: Homo sapiens, HT-144
# Description: SANGER: Inhibition of human HT-144 cell growth in a cell viability assay.
# KARPAS-299 = format: functional, cell-based; conditions: Homo sapiens
# Description: SANGER: Inhibition of human KARPAS-299 cell growth in a cell viability assay.
# LNCaP-Clone-FGC = format: functional, cell-based, Homo sapiens; conditions: Homo sapiens, LNCaP-Clone-FGC
# Description: SANGER: Inhibition of human LNCaP-Clone-FGC cell growth in a cell viability assay.
# MZ2-MEL = format: functional, cell-based, Homo sapiens; conditions: Homo sapiens, MZ2-MEL;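 note: growth inhibition of MZ2-MEL cells read out with a cell viability assay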
# Description: SANGER: Inhibition of human MZ2-MEL cell growth in a cell viability assay.
# NCI-H1563 = format: functional, cell-based, Homo sapiens; conditions: Homo sapiens, NCI-H1563;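 note: growth inhibition of human NCI-H1563 cells, read out with a cell viability assay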
# Description: SANGER: Inhibition of human NCI-H1563 cell growth in a cell viability assay.
# NCI-H1693 = format: functional, cell-based, Homo sapiens; conditions: Homo sapiens, NCI-H1693;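 note: growth inhibition of the human cell line, read out with a cell viability assay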
# Description: SANGER: Inhibition of human NCI-H1693 cell growth in a cell viability assay.
# NCI-H1770 = format: functional, cell-based; conditions: Homo sapiens;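 note: growth inhibition of NCI-H1770 cells determined with a viability readout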
# Description: SANGER: Inhibition of human NCI-H1770 cell growth in a cell viability assay.
# NCI-H209 = format: functional, cell-based; conditions: Homo sapiens;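 note: growth inhibition of human NCI-H209 cells, measured by a cell viability assay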
# Description: SANGER: Inhibition of human NCI-H209 cell growth in a cell viability assay.
# NCI-H2228 = format: functional, cell-based, Homo sapiens; conditions: Homo sapiens, NCI-H2228;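 note: growth inhibition of human NCI-H2228 cells, read out by a cell viability assay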
# Description: SANGER: Inhibition of human NCI-H2228 cell growth in a cell viability assay.
# NCI-H23 = format: functional, cell-based, Homo sapiens; conditions: Homo sapiens, NCI-H23;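 note: cell viability assay measuring growth inhibition of NCI-H23 cells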
# Description: SANGER: Inhibition of human NCI-H23 cell growth in a cell viability assay.
# NCI-H358 = format: functional, cell-based, Homo sapiens; conditions: Homo sapiens, NCI-H358;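 note: growth inhibition of NCI-H358 human cells, read out with a cell viability assay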
# Description: SANGER: Inhibition of human NCI-H358 cell growth in a cell viability assay.
# NCI-H526 = format: functional, cell-based; conditions: Homo sapiens;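 note: growth inhibition of the human NCI-H526 cell line, measured by a cell viability assay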
# Description: SANGER: Inhibition of human NCI-H526 cell growth in a cell viability assay.
# NCI-H650 = format: functional, cell-based, Homo sapiens; conditions: Homo sapiens, NCI-H650;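 note: growth inhibition of NCI-H650 cells, read out by a viability assay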
# Description: SANGER: Inhibition of human NCI-H650 cell growth in a cell viability assay.
# NCI-H661 = format: functional, cell-based, Homo sapiens; conditions: Homo sapiens, NCI-H661;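 note: cell viability assay read-out, IC50 being the concentration that inhibits growth of the cells by half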
# Description: SANGER: Inhibition of human NCI-H661 cell growth in a cell viability assay.
# SNU1 = format: functional, cell-based; conditions: Homo sapiens;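 note: growth inhibition of human NCI-SNU-1 cells, measured with a cell viability assay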
# Description: SANGER: Inhibition of human NCI-SNU-1 cell growth in a cell viability assay.
# OVCAR-8 = format: functional, cell-based, Homo sapiens; conditions: Homo sapiens, OVCAR-8;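 note: growth inhibition of human OVCAR-8 cells, read out by a cell viability assay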
# Description: SANGER: Inhibition of human OVCAR-8 cell growth in a cell viability assay.
# PFSK-1 = format: functional, cell-based, Homo sapiens; conditions: Homo sapiens, PFSK-1;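 note: cell viability assay measuring how strongly compounds suppress growth of human PFSK-1 cells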
# Description: SANGER: Inhibition of human PFSK-1 cell growth in a cell viability assay.
# RMG-I = format: functional, cell-based, Homo sapiens; conditions: Homo sapiens, RMG-I;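 note: growth inhibition of human RMG-I cells, read out with a cell viability assay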
# Description: SANGER: Inhibition of human RMG-I cell growth in a cell viability assay.
# RVH-421 = format: functional, cell-based, Homo sapiens; conditions: Homo sapiens, RVH-421
# Description: SANGER: Inhibition of human RVH-421 cell growth in a cell viability assay.
# S-117 = format: functional, cell-based, Homo sapiens; conditions: Homo sapiens, S-117
# Description: SANGER: Inhibition of human S-117 cell growth in a cell viability assay.
# SK-HEP1 = format: functional, cell-based, Homo sapiens, SK-HEP-1; conditions: Homo sapiens, SK-HEP1;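 note: cell viability readout used to quantify reduction in proliferation of human SK-HEP-1 cells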
# Description: SANGER: Inhibition of human SK-HEP-1 cell growth in a cell viability assay.
# SK-LMS-1 = format: functional, cell-based, Homo sapiens; conditions: Homo sapiens, SK-LMS-1;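 note: growth inhibition of human SK-LMS-1 cells, read out with a cell viability assay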
# Description: SANGER: Inhibition of human SK-LMS-1 cell growth in a cell viability assay.
# SK-MEL-1 = format: functional, cell-based; conditions: Homo sapiens;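 note: growth inhibition of human SK-MEL-1 cells, read out by a cell viability assay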
# Description: SANGER: Inhibition of human SK-MEL-1 cell growth in a cell viability assay.
# SW872 = format: functional, cell-based, Homo sapiens; conditions: Homo sapiens, SW872;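 note: growth inhibition of SW872 cells, read out by a viability assay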
# Description: SANGER: Inhibition of human SW872 cell growth in a cell viability assay.
# T47D = format: functional, cell-based, Homo sapiens; conditions: Homo sapiens, T47D;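 note: growth inhibition of human T47D cells, measured with a cell viability assay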
# Description: SANGER: Inhibition of human T47D cell growth in a cell viability assay.
# A-431 = format: functional, cell-based, Homo sapiens; conditions: Homo sapiens, A-431;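 note: growth inhibition of A-431 cells, determined with a cell viability read-out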
# Description: SANGER: Inhibition of human A431 cell growth in a cell viability assay.
# ACHN = format: functional, cell-based, Homo sapiens; conditions: Homo sapiens, ACHN;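 note: cell viability read-out used to gauge how strongly growth of human ACHN cells is suppressed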
# Description: SANGER: Inhibition of human ACHN cell growth in a cell viability assay.
# ACN = format: functional, cell-based, Homo sapiens; conditions: Homo sapiens, ACN;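 note: growth inhibition of the human ACN cell line, read out via cell viability testing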
# Description: SANGER: Inhibition of human ACN cell growth in a cell viability assay.
# BB65-RCC = format: functional, cell-based, Homo sapiens; conditions: Homo sapiens, BB65-RCC;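 note: growth inhibition of the cell line, measured with a cell viability assay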
# Description: SANGER: Inhibition of human BB65-RCC cell growth in a cell viability assay.
# BEN = format: functional, cell-based, Homo sapiens; conditions: Homo sapiens, BEN;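 note: growth inhibition of the BEN cell line, read out with a cell viability assay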
# Description: SANGER: Inhibition of human BEN cell growth in a cell viability assay.
# C3A = format: functional, cell-based, Homo sapiens; conditions: Homo sapiens, C3A;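 note: growth inhibition of C3A human cells, quantified with a cell viability readout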
# Description: SANGER: Inhibition of human C3A cell growth in a cell viability assay.
# CAL-62 = format: functional, cell-based, Homo sapiens; conditions: Homo sapiens, CAL-62;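 note: growth inhibition of CAL-62 cells, read out with a cell viability assay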
# Description: SANGER: Inhibition of human CAL-62 cell growth in a cell viability assay.
# TE-5 = format: functional, cell-based, Homo sapiens; conditions: Homo sapiens, TE-5;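 note: inhibition of cell growth, read out by a cell viability assay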
# Description: SANGER: Inhibition of human TE-5 cell growth in a cell viability assay.
# TE-8 = format: functional, cell-based, Homo sapiens; conditions: Homo sapiens, TE-8;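 note: growth inhibition of TE-8 cells, measured with a cell viability readout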
# Description: SANGER: Inhibition of human TE-8 cell growth in a cell viability assay.
# UACC-257 = format: functional, cell-based, Homo sapiens; conditions: Homo sapiens, UACC-257
# Description: SANGER: Inhibition of human UACC-257 cell growth in a cell viability assay.
# UMUC3 = format: functional, cell-based, Homo sapiens; conditions: Homo sapiens, UMUC3;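 note: growth inhibition of human UM-UC-3 cells, read out with a cell viability assay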
# Description: SANGER: Inhibition of human UM-UC-3 cell growth in a cell viability assay.
# no-11 = format: functional, cell-based, Homo sapiens; conditions: Homo sapiens;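 note: growth inhibition of human NO-11 cells, read out with a cell viability assay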
# Description: SANGER: Inhibition of human no-11 cell growth in a cell viability assay.
# COLO-684 = format: functional, cell-based; conditions: Homo sapiens
# Description: SANGER: Inhibition of human COLO-684 cell growth in a cell viability assay.
structure (smiles),measurement,setting,value
COC(=O)CNC(=O)C(=O)OC,pIC50,COLO-829,3.95
same,pIC50,CaR-1,3.66
same,pIC50,Calu-3,4.18
same,pIC50,ChaGo-K-1,2.81
same,pIC50,D-542MG,3.25
same,pIC50,DEL,4.14
same,pIC50,DU-4475,3.05
same,pIC50,HCT-116,3.18
same,pIC50,HEC-1,3.02
same,pIC50,HL-60,3.80
same,pIC50,HPAF-II,3.00
same,pIC50,HT1197,3.50
same,pIC50,HT-144,3.75
same,pIC50,KARPAS-299,4.01
same,pIC50,LNCaP-Clone-FGC,2.49
same,pIC50,MZ2-MEL,3.32
same,pIC50,NCI-H1563,3.91
same,pIC50,NCI-H1693,2.42
same,pIC50,NCI-H1770,< 2.40
same,pIC50,NCI-H209,2.95
same,pIC50,NCI-H2228,4.37
same,pIC50,NCI-H23,2.53
same,pIC50,NCI-H358,3.99
same,pIC50,NCI-H526,3.27
same,pIC50,NCI-H650,3.57
same,pIC50,NCI-H661,2.64
same,pIC50,SNU1,< 2.40
same,pIC50,OVCAR-8,3.23
same,pIC50,PFSK-1,3.56
same,pIC50,RMG-I,3.09
same,pIC50,RVH-421,2.88
same,pIC50,S-117,2.41
same,pIC50,SK-HEP1,4.07
same,pIC50,SK-LMS-1,3.92
same,pIC50,SK-MEL-1,2.62
same,pIC50,SW872,3.22
same,pIC50,T47D,< 2.40
same,pIC50,A-431,4.01
same,pIC50,ACHN,3.53
same,pIC50,ACN,3.89
same,pIC50,BB65-RCC,2.62
same,pIC50,BEN,4.43
same,pIC50,C3A,3.80
same,pIC50,CAL-62,2.98
same,pIC50,TE-5,2.96
same,pIC50,TE-8,2.58
same,pIC50,UACC-257,2.96
same,pIC50,UMUC3,3.58
same,pIC50,no-11,3.68
same,pIC50,COLO-684,3.25
